Legend:
[1] = target: human immunoproteasome β5i (Homo sapiens, UniProt P28062); assay: IC50 against chymotryptic activity of human immunoproteasome (Hu i-20S, Ac-ANW-AMC substrate); assay type: biochemical; settings: 0.4 nM Hu i-20S, 15 μM Ac-ANW-AMC, 0.02% SDS, pH 7.4, 37° C.
Experimental: (§1) Measurement of IC50s of Dipeptidomimetics Against Chymotryptic Activities of the Human Constitutive Proteasome and Immunoproteasome
(§2) Assays were conducted on a SpectraMax Gemini plate-reader from Molecular Devices (Sunnyvale, CA). In a black 96-well plate, 100 μL of pre-warmed assay mixture containing 0.4 nM Hu i-20S or 0.2 nM Hu c-20S, 15 μM N-acetyl-Alanine-Asparagine-Tryptophan-7-amino-4-methylcoumarin (Ac-ANW-AMC) (substrate for i-20S) or 25 μM N-succinyl-Leucine-Leucine-Valine-Tyrosine-7-amino-4-methylcoumarin (suc-LLVY-AMC) (substrate for c-20S), 0.02% SDS in buffer (50 mM HEPES, 0.5 mM EDTA, pH 7.4) was added to the wells that contained 1 μL inhibitor at 100× indicated concentrations in DMSO. The reaction progress of each well was recorded by monitoring fluorescence at 460 nm (λex=360 nm) for 120 minutes at 37° C. Velocities were derived from the initial linear range of the curves and the IC50s were obtained by plotting the percentage of inhibitor versus inhibitor concentrations (FIG. 1). […]

[2] = target: human constitutive proteasome β5c (Homo sapiens, UniProt P28074); assay: IC50 against chymotryptic activity of human constitutive proteasome (Hu c-20S, suc-LLVY-AMC substrate); assay type: biochemical; settings: 0.2 nM Hu c-20S, 25 μM suc-LLVY-AMC, 0.02% SDS, pH 7.4, 37° C.
Experimental: as §1, §2

IC50 [1] [µM]	IC50 [2] [µM]	Structure (SMILES)
0.152	> 100	C[C@@H](CC(=O)NCc1cccc2ccccc12)NC(=O)[C@H](CC(=O)NC(C)(C)C)NC(=O)OC(C)(C)C [PK52272, tert-butyl ((S)-4-(tert-butylamino)-1-(((S)-4-((naphthalen-1-ylmethyl)amino)-4-oxobutan-2-yl)amino)-1,4-dioxobutan-2-yl)carbamate]
0.0145	34.7	Cc1ccc(S(=O)(=O)N[C@H](CC(=O)N[C@@H](C)C(=O)NCc2cccc3ccccc23)CC(=O)NC(C)(C)C)cc1 [PK52279, (R)—N^1-(tert-butyl)-3-(4-methylphenylsulfonamido)-N^5—((S)-1-((naphthalen-1-ylmethyl)amino)-1-oxopropan-2-yl)pentanediamide]
1.6	13.9	Cc1ccc(S(=O)(=O)N[C@@H](CCC(=O)NC(C)(C)C)CC(=O)N[C@@H](C)C(=O)NCc2cccc3ccccc23)cc1 [PK52290, (S)—N^6-(tert-butyl)-3-(4-methylphenylsulfonamido)-N^1—((S)-1-((naphthalen-1-ylmethyl)amino)-1-oxopropan-2-yl)hexanediamide]
8.68	> 100	Cc1ccc(S(=O)(=O)N[C@H](CC(=O)N[C@@H](C)CC(=O)NCc2cccc3ccccc23)CC(=O)NC(C)(C)C)cc1 [PK52291, (R)—N^1-(tert-butyl)-3-(4-methylphenylsulfonamido)-N^5—((S)-4-((naphthalen-1-ylmethyl)amino)-4-oxobutan-2-yl)pentanediamide]
0.141	–	C[C@@H](CC(=O)NCc1cccc2ccccc12)NC(=O)[C@H](CC(=O)NC(C)(C)C)NS(=O)(=O)C1CC1 [PK52295, (S)—N^4-(tert-butyl)-2-(cyclopropanesulfonamido)-N^1—((S)-4-((naphthalen-1-ylmethyl)amino)-4-oxobutan-2-yl)succinamide]
0.671	13.4	Cc1ccc(S(=O)(=O)N[C@@H](CCC(=O)NC(C)(C)C)C(=O)N[C@@H](C)C(=S)NCc2cccc3ccccc23)cc1 [PK53021]
0.18	16.1	Cc1cc(C(=O)N[C@@H](CC(=O)NC(C)(C)C)C(=O)N[C@@H](C)CC(=O)NCc2cccc3ccccc23)no1 [PKS2249, (S)—N^4-(tert-butyl)-2-(5-methylisoxazole-3-carboxamido)-N^1—((S)-4-((naphthalen-1-ylmethyl)amino)-4-oxobutan-2-yl)succinamide]
0.045	32.2	C[C@@H](CC(=O)NCc1cccc2ccccc12)NC(=O)[C@H](CC(=O)NC(C)(C)C)NC(=O)CCc1ccccc1 [PKS2251, (S)—N^4-(tert-butyl)-N^1—((S)-4-((naphthalen-1-ylmethyl)amino)-4-oxobutan-2-yl)-2-(3-phenylpropanamido)succinamide]
0.0064	8.81	Cc1ccc(S(=O)(=O)N[C@@H](CC(=O)NC(C)(C)C)C(=O)N[C@@H](C)CC(=O)NCc2cccc3ccccc23)cc1 [PKS2252, (S)—N^4-(tert-butyl)-2-((4-methylphenyl)sulfonamido)-N^1—((S)-4-((naphthalen-1-ylmethyl)amino)-4-oxobutan-2-yl)succinamide]
0.31	17.8	C[C@@H](CC(=O)NCc1cccc2ccccc12)NC(=O)[C@H](CCC(=O)NC(C)(C)C)NC(=O)CCc1ccccc1 [PKS2253, (S)—N^5-(tert-butyl)-N^1—((S)-4-((naphthalen-1-ylmethyl)amino)-4-oxobutan-2-yl)-2-(3-phenylpropanamido)pentanediamide]
0.0112	16.6	C[C@@H](CC(=O)NCc1cccc2ccccc12)NC(=O)[C@H](CC(=O)NC(C)(C)C)NS(=O)(=O)c1ccccc1 [PKS2260, (S)—N^4-(tert-butyl)-N^1—((S)-4-((naphthalen-1-ylmethyl)amino)-4-oxobutan-2-yl)-2-(phenylsulfonamido)succinamide]
2.26	> 100	C[C@H](NC(=O)C[C@H](CC(=O)NC(C)(C)C)NC(=O)CCc1ccccc1)C(=O)NCc1cccc2ccccc12 [PKS2278, (R)—N^1-(tert-butyl)-N^5—((S)-1-((naphthalen-1-ylmethyl)amino)-1-oxopropan-2-yl)-3-(3-phenylpropanamido)pentanediamide]
> 100	> 100	C[C@@H](CC(=O)NCc1cccc2ccccc12)NC(=O)C[C@H](CC(=O)NC(C)(C)C)NC(=O)CCc1ccccc1 [PKS2292, (R)—N^1-(tert-butyl)-N^5—((S)-4-((naphthalen-1-ylmethyl)amino)-4-oxobutan-2-yl)-3-(3-phenylpropanamido)pentanediamide]
0.799	7	C[C@H](NC(=O)[C@H](CCC(=O)NC(C)(C)C)NC(=O)CCc1ccccc1)C(=S)NCc1cccc2ccccc12 [PKS3020]
0.0048	0.234	C[C@@H](CC(=O)NCc1cccc2ccccc12)NC(=O)[C@H](CC(=O)NC(C)(C)C)NC(=O)C(=O)c1c[nH]c2ccccc12 [PKS3054]
> 100	> 100	C[C@H](NC(=O)C[C@H](CC(=O)NC(C)(C)C)NC(=O)OC(C)(C)C)C(=O)Nc1ccccc1 [PKS3065]
13.7	> 100	C[C@@H](CC(=O)Nc1cccc2ccccc12)NC(=O)[C@H](CC(=O)NC(C)(C)C)NC(=O)CCc1ccccc1 [PKS3081]
0.655	51.4	CC(C)(C)NC(=O)C[C@H](NC(=O)CCc1ccccc1)C(=O)NCCC(=O)NCc1cccc2ccccc12 [PKS21220]

Reference: US12016896B2, “Dipeptidomimetics as inhibitors of human immunoproteasomes” (CORNELL UNIVERSITY, priority 2014, dated 2024)
